Series [1] is described as follows: Metabolic stability in liver microsomes. As to conditions: human liver microsomes, versus earlier compounds. On the technique in general: Liver microsomes are vesicles of endoplasmic reticulum, rich in cytochrome P450 enzymes.
A further series deals with H5 HA compared to H1 HA. Format: binding, influenza A virus.
Another series deals with MDCK cells. As to the kind of experiment: Cell toxicity assay.
Series [2] concerns H1N1 A/Brisbane/59/2007 HA. Format: biochemical, influenza A virus. The note with it: pH 5.25.
The subject of series [3] is H1N1 A/PR/8/1934 virus in human bronchial epithelial cells (HBEC). As to the kind of experiment: Viral neutralization assay in HBEC cultures. As to conditions: 96 hours post-infection. Format: cell-based.
Series [4] has as its system panel of pharmacologically relevant receptors, ion channels, and transporters. The series can be described thus: In vitro selectivity profiling. The note with it: 10 µM. Format: binding.
The test system of series [5] is H1N1 A/California/07/2009 (H1/Cal). Format: cell-based, influenza A virus. As to conditions: read-out: virus neutralization EC50 for H1/Cal.
The test system of series [6] is H1N1 A/PR/8/1934 virus. The series can be described thus: Mouse influenza challenge, sublethal. As to conditions: for survival: sublethal challenge (MLD90). Format: in vivo.
Series [7] concerns H1N1 A/PR/8/1934 virus. The series can be described thus: Mouse influenza challenge, lethal. Format: in vivo. As to conditions: for survival at day 21: lethal challenge 25x MLD.
A short description of a further series: Kinetic solubility. As to conditions: versus earlier compounds.
The nature of series [8]: Metabolic stability in liver microsomes. The note with it: murine liver microsomes, versus earlier compounds.
In series [9] the test system is H1N1 A/New Caledonia/20/1999 (H1/NCa). Format: cell-based, influenza A virus. The note with it: read-out: virus neutralization EC50 for H1/NCa.
Series [10] deals with influenza A group 1 viruses. Format: cell-based, influenza A virus.
Another series is described as follows: In vivo pharmacokinetics. The arrangement: species or system mouse. As to conditions: mice.

The text below walks through data of article PMC6457909 (Science (New York, N.Y.), 2019).

Structures are written as SMILES. pEC50: −log10 of the molar value.

On to `CC(=O)Nc1ccc2oc(-c3ccnc(C(=O)N4CCN([C@H](c5ccccc5)c5nnn(C)n5)CC4)c3)nc2c1` [JNJ4796], for which the “intrinsic clearance (in words)” value in series [1] and in series [8] was “significantly reduced” throughout. In addition, the “decrease of binding affinity to H5 HA compared to H1 HA” value in the series on H5 HA compared to H1 HA was ~ 25 fold. Further, in the series on MDCK cells, the cytotoxicity result is recorded as “without cytotoxicity”. For the same compound, the “inhibition of low pH-induced HA conformational change” value in series [2] is given as “dose-dependently prevents pH-induced transition of HA to the post-fusion conformation”. Besides, the viral titers entry in [3] is on record as “dramatically reduced the viral titers”. The inhibition of off-targets result in series [4] is on record as “does not substantially inhibit any of these potential off-targets”. Moreover, the results for the pEC50 in [5] and in series [9] were 7.18 and 7.42, respectively. The survival in the series on H1N1 A/PR/8/1934 virus [6] (5 mg/kg twice daily oral) and in the series with H1N1 A/PR/8/1934 virus [6] (15 mg/kg twice daily oral) was 100% in each case. The weight loss entry with H1N1 A/PR/8/1934 virus [6] (sublethal challenge, 15 and 5 mg/kg twice daily) is reported as “only moderate weight loss effects”. Further, the “survival at day 21” value in the series with H1N1 A/PR/8/1934 virus [7] (10 mg/kg twice daily oral) and with H1N1 A/PR/8/1934 virus [7] (50 mg/kg twice daily oral) was 100% throughout. Also, the “morbidity (animal weight loss)” value with H1N1 A/PR/8/1934 virus [7] (lethal challenge, 50 and 10 mg/kg) was “only partly alleviated morbidity”. The “aqueous solubility (in words)” value in the series “Kinetic solubility” is “increased”. Besides, in [10], the “breadth of virus neutralization” value is “heterosubtypic group 1 HA binding and virus neutralization breadth”. The “half-life (t½)” value in the series “In vivo pharmacokinetics” (after oral administration) came to 2.4 h. In the series “In vivo pharmacokinetics” (oral), this compound had an overall bioavailability of 30.0%. For the same compound, the “plasma concentration (Cmax)” value in the series “In vivo pharmacokinetics” (oral administration at 10 mg/kg) worked out at 1152 ng/mL.
